Experimental findings from ChEMBL document CHEMBL1141551, “Discovery of novel PRL-3 inhibitors based on the structure-based virtual screening” (Bioorg Med Chem Lett, 2008) are described below.

Molecules are shown by their SMILES.

Sequence of Protein tyrosine phosphatase type IVA 3 (O75365 whole entry): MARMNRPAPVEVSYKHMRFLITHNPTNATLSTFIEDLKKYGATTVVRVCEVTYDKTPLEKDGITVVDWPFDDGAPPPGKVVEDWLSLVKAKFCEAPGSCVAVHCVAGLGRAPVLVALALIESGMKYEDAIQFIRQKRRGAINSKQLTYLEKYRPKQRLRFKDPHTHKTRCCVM

This test addresses Protein tyrosine phosphatase type IVA 3 (Homo sapiens, UniProt O75365). Kind of test: Inhibition of human PRL3 expressed in Escherichia coli BL21 (DE3).
Compound `COc1ccc(-n2nnnc2SCC(=O)c2ccc(O)c(O)c2)cc1` gave an IC50 of 44.7 µM. Turning to `O=C1NC(=S)S/C1=C/c1ccc(-c2ccccc2C(=O)O)o1`, the half-maximal inhibitory concentration (IC50) turned out to be 13.3 µM. In turn, `O=C1NC(=O)/C(=C\c2cccn2-c2ccc(C(=O)O)cc2)N1` displayed a half-inhibitory concentration (IC50) of 28.1 µM. In turn, `C=CCn1c(SCC(=O)c2ccc(O)c(O)c2)nnc1-c1cccc(Cl)c1` yielded an IC50 of 43.8 µM.

`N#CC1=C(S)N(c2ccccc2)C(/C=C/c2ccc(-c3ccc(Cl)cc3)o2)NC1=O` (stereo not given) had a half-inhibitory concentration (IC50) of 18.3 µM.
